Experimental data as given in BindingDB's records for doi:10.1111/j.1747-0285.2010.01036.x (Ataturk University, 2010).

Biological target: Serum paraoxonase/arylesterase 1 (Homo sapiens, UniProt P27169)
Assay: In Vitro Inhibtion Assay
Description: The inhibitory effects of six sulfonamide derivatives was examined against the purified enzyme hPON1 and were tested in a triplicate experiment in five different concentrations (0.15, 0.3, 0.45, 0.6, and 0.75 mM).

Serum paraoxonase/arylesterase 1, sequence (P27169 whole entry): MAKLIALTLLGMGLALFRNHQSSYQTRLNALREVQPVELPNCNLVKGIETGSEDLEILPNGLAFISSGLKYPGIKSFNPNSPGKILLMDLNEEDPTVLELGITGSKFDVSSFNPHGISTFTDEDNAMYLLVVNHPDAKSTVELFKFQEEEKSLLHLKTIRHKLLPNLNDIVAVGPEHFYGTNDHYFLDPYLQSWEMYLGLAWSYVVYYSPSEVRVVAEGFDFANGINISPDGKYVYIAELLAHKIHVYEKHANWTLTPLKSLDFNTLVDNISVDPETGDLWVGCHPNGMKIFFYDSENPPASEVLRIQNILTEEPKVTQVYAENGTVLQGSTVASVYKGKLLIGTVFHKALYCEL

First: Nc1nnc(S(N)(=O)=O)s1 [1,3,4-thiadiazole-2-sulfonamide 15]
Second: CC(=O)Nc1nnc(S(N)(=O)=O)s1 [Acetazolamide, AAZ]
The IC50 of the first is 1.6-fold higher: 1240 µM for the first, 800 µM for the second. The second is the more potent here.

First: NS(=O)(=O)c1cc(C(=O)O)c(NCc2ccco2)cc1Cl [4-chloro-2-[(furan-2-ylmethyl)amino]-5-sulfamoylbenzoic acid]
Second: CC(=O)NS(=O)(=O)c1ccc(N)cc1 [Cetamide]
The IC50 of the first is 2-fold higher: 360 µM for the first, 180 µM for the second.

Compound `NCc1ccc(S(N)(=O)=O)cc1` [aromatic sulfonamide compound 6] has an IC50 of 190 µM.

Going from `Nc1nnc(S(N)(=O)=O)s1` [1,3,4-thiadiazole-2-sulfonamide 15] to `CC(=O)Nc1nnc(S(N)(=O)=O)s1` [Acetazolamide, AAZ], the Ki falls from 2010 µM to 743 µM (2.7-fold).

First: NS(=O)(=O)c1cc(C(=O)O)c(NCc2ccco2)cc1Cl [4-chloro-2-[(furan-2-ylmethyl)amino]-5-sulfamoylbenzoic acid]
Second: CC(=O)NS(=O)(=O)c1ccc(N)cc1 [Cetamide]
The Ki of the first is 8.2-fold higher: 702 µM for the first, 86 µM for the second. The second binds more tightly here.

`NCc1ccc(S(N)(=O)=O)cc1` [aromatic sulfonamide compound 6] gave a Ki of 340 µM.
